Data on two substances can be found in patent US20190185544A1, “COMPOSITIONS AND METHODS OF MODULATING ABETA PROTEIN” (University of South Florida, priority 2016, published 2019).

The test system of one experiment is N-terminus of APP. The experiment is described as follows: Co-immunoprecipitation and co-localisation with N-terminal APP in CHO/APPwt cells. The format is binding, human. As to conditions: peptides 10 μM or apoE 10 μg/mL, 2 h; IP with 6H3B5 or pN-APP. The method, then: Total secreted APP (t-sAPP) and full-length APP (f-APP) in total (inputs), immunoprecipitates and immunodepleted media and lysates were determined by WB using 22C11 or anti-C-terminal APP751/70 antibody (pC-APP), respectively (FIG. 20A left panels and FIG. 20B, top panels). Alternatively, conditioned media and cell lysates were IP with anti-N-terminal APP41/66 antibody (pN-APP) and apoE, or 6KApoEp and ApoEp, was determined using anti-human apoE antibody (ApoE1H4; FIG. 20A, right panels) or 6H3B5, respectively (FIG. 20B, bottom panels). In addition, CHO/APPwt cells were plated at 8 well-chambers at 1×10^5/well for 24 h, treated with 6K, ApoEp or 6KApoEp at 10 μM for 2 h, fixed in 4% paraformaldehyde and stained with 6H3B5 and pN-APP antibodies (FIG. 20C). Alexa Fluor 488 goat anti-mouse IgG (green) was used to detect ApoEp and 6KApoEp, while Alexa Fluor 594 donkey anti-rabbit IgG (red) was used to detect N-terminal APP. DAPI co-staining was done to show nuclear DNA. Homogenates prepared from three TgAPPwt mice (2 female/1 male), two AD patients (AD1[…], AD2[…]) and two normal age-matched control cortices (Ctrl1[…], Ctrl2[…]) were also IP with 6H3B5 or pN-APP and t-APP and apoE were determined using 6E10 and mApoE, respectively (FIGS. 20D-20E).
N-terminus of APP, sequence (P05067 18-189 limits assumed): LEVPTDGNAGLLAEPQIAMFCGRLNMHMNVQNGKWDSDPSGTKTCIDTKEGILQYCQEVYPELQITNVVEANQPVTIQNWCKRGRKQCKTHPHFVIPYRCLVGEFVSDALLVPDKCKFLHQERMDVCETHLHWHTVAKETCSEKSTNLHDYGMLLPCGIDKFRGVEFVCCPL
Total secreted APP in conditioned media and full length APP in cell lysates were then determined by WB using anti-N-terminal (22C11) and anti-C-terminal APP antibodies (pC-APP), respectively. […] In addition, ApoEp and 6KApoEp colocalized with N-terminal APP in cultured CHO/APPwt cells as determined by immunofluorescence staining with 6H3B5 and pN-APP antibodies (FIG. 20C), respectively, confirming that N-terminal APP physically associates with apoE in cell culture. […]
WB analyses were performed as previously described^43,44. […] For all other proteins detected by WB, 10% tris-SDS gels were used. Densitometry analysis was performed as previously described using a FluorS Multiimager with Quantity One™ software 43. […]

For a further experiment, the system named is CHO/APPdE1 cells. The experiment is described as follows: Aβ production in CHO cells expressing APP695 lacking the N-terminal E1 region. The format is cell-based, Chinese hamster. As to conditions: peptides 10 μM or apoE 10 μg/mL, 4 h; compared with CHO/APPwt. An excerpt: CHO cells were also transfected with pCMV6 APP695 or pCMV6 E1 depleted APP695, yielding cells expressing wild type APP695 (CHO/APPwt) or truncated APP695 lacking the N-terminal E1 region (CHO/APPdE1). […] Diagram indicates important domains identified in APP, including N-terminal E1 region (top panel), and APPwt and APPdE1 proteins in cell lysates and conditioned media derived from the transfected CHO cells as determined by WB using 6E10 (middle panels). […] ELISA results are representative of three independent experiments with each condition triplicated and presented as mean±s.d. of Aβs (μg/mg of total intracellular protein). Asterisk indicates P<0.05 compared with the corresponding absence of 22C11, 6H3B5 or 6KApoEp, or with corresponding CHO/APPwt cells, as determined by one-way ANOVA.
Therefore, apoE and ApoEp mediates and 6KApoEp reduces Aβ production by binding to the N-terminal E1 region of APP, but this region of APP is not required for spontaneous Aβ release in the absence of apoE.

The test system of another experiment is p38 MAPK. Description: p38 MAPK phosphorylation in CHO/APPwt cell lysates (WB). The following applies: peptides 10 μM or apoE 10 μg/mL, 0 to 180 min. The class given is cell-based, Chinese hamster.

In the case of “ApoE3: human recombinant apolipoprotein E3 protein (BioVision)”, the “immunoprecipitation and localization with N-terminal APP” value in the experiment with N-terminus of APP was “immunoprecipitated and localized with N-terminal APP in vivo and in vitro”. The “Aβ production in CHO/APPdE1 cells” value in the experiment with CHO/APPdE1 cells is reported as “markedly less Aβ production compared with CHO/APPwt cells”. Besides, in the experiment on p38 MAPK, the “p38 MAPK phosphorylation” value is “activated both p44/42 and p38 MAPK phosphorylation”.

On to “ApoE4: human recombinant apolipoprotein E4 protein (BioVision)”, for which, in the experiment with N-terminus of APP, the “immunoprecipitation and localization with N-terminal APP” value was “immunoprecipitated and localized with N-terminal APP in vivo and in vitro”. In addition, the “Aβ production in CHO/APPdE1 cells” value in the experiment on CHO/APPdE1 cells is listed as “markedly less Aβ production compared with CHO/APPwt cells”. In addition, the “p38 MAPK phosphorylation” value with p38 MAPK was “activated both p44/42 and p38 MAPK phosphorylation”.
